Data set [1] is described as follows: In vitro metabolism in human lung precision-cut tissue slices, HPLC with UV detection. The format is in vitro ADME. To be noted: for Metabolites detected in incubation medium: incubation medium, 2, 6 and 24 h; for Relative drug amount in human lung tissue slices: Parent compound / Total amount in human lung tissue slices: Parent compound: tissue extract; for Relative drug amount in human lung tissue slices: Parent compound / Total amount in human lung tissue slices: Parent compound / Relative drug amount in medium: Parent compound: mean ± SD n = 9; for Share of BDP-related material in tissue / Share of BDP-related material in medium: incubation of BDP 25 μM; for Share of BDP-related material in tissue: lung tissue extract; for Relative drug amount in medium: Parent compound: incubation medium, initial 25 μM. The protocol:
Lung slices were prepared at Vitron, Inc. (Tucson, AZ, USA) as previously described. In brief, the lungs were inflated with 2 to 4 L of 0.5% agar/Waymouth's medium mixture at 37°C and were stored at 4°C for 30 to 60 min. Each lung was cut into 2 cm thick slabs, placed on dental wax, and tissue cylinders of 8 mm diameter were prepared using a cordless coring tool. 400 μm thick slices were cut from the cylinders using a Brendel-Vitron tissue slicer.
Three lung slices from each donor were floated onto titanium roller inserts, blotted, and loaded horizontally into glass scintillation vials containing 1.7 mL of Waymouth's MB752/1 tissue culture medium fortified with 10% fetal calf serum, 0.35 g/L L-glutamine, 10 mL/L Fungi-Bact, and 84 μg/mL gentamicin sulfate.
Three vials were used per substrate and time point. A stock solution of the substrate was added prior to dispensing the media into vials. The final substrate concentration was 25 μM. The vials were closed with caps that had central 2-mm holes, placed in a Dynamic Organ Culture incubator (Vitron, Inc., Tucson, AZ, USA) at 37°C, and exposed to 95% O2 and 5% CO2. The human tissue slices were incubated for 2, 6, and 24 h, and cellular viability of human lung slices was assessed using separate incubation samples (see assessment of cellular viability). Slices and media from each vial were harvested separately into separate tubes and stored at -80°C. Metabolism samples containing either tissue or media were shipped on dry ice from Vitron, Inc. to ALTANA Pharma AG for analysis.
The volume of medium was measured at the end of the incubation period. Samples of the incubation medium were prepared by mixing 60 μL of medium with 60 μL of solution for precipitation (0.2 M ZnSO4/ACN, 1:1). Following centrifugation for 5 min (1,000 × g Model5414, Eppendorf) at room temperature, the supernatant was assayed by high performance liquid chromatography (HPLC). Tissue samples were homogenized in 1 mL of methanol using ultrasonic treatment (Branson Sonifier 250; Branson Ultrasonics Corporation, Danbury, Conn) and were centrifuged for 5 min (1,000 × g Model5414, Eppendorf) at room temperature. After centrifugation, 333 μL of the supernatant was dried under a gentle stream of nitrogen at 45°C and resuspended in 75 μL of methanol before analysis.
HPLC analysis was performed using a Hewlett-Packard HP1090 liquid chromatograph (Agilent Technologies Deutschland GmbH, Waldbronn, Germany) with an ultraviolet (UV) detector monitoring at 242 nm. Separation was achieved using a Hypersil MOS column (125 × 4 mm, 5 μm) (Thermo Electron Corp., Dreieich, Germany). A water/ethanol gradient system was run from 30 to 90% ethanol in 10 min followed by an isocratic phase (6 min) with 90% ethanol at a flow rate of 0.75 mL/min. 25 μL of the tissue extract or 100 μL of the supernatant of the medium were injected onto the column.

The test system of a further data set is glucocorticoid receptor. To be noted: in words, compared with des-CIC and BMP; cited from earlier work.
For data set [2] the following is noted: cited from earlier work.
Details of data set [3]: method as in earlier work. To be noted: cited from earlier work.
On the set-up of data set [4]: method as in PMID 16566061. The settings on record: 14C-ciclesonide 25 μM, previous study; cited from earlier work.
The conditions of data set [5]: directly after inhalation of CIC 800 μg via MDI; cited from earlier work.
Where [6] appears, read: after inhalation of 1600 μg BUD via Nebuhaler.
Where [7] appears, read: after inhalation of 1 mg BDP via MDI (Aerobec).

Read-outs that look alike come from different tables or passages of the source.

For the compound `CCCC1O[C@@H]2C[C@H]3[C@@H]4CCC5=CC(=O)C=C[C@]5(C)[C@H]4[C@@H](O)C[C@]3(C)[C@]2(C(=O)CO)O1` (some centres unmarked) [Budesonide, budesonide], the “Metabolites detected in incubation medium” value in data set [1] (25 μM, listed as BUD) is “no metabolites were detected”. In data set [1] (2 h, 25 μM), the “Relative drug amount in human lung tissue slices: Parent compound” value is given as 72.2 ± 10.8 % of total UV areas and the “Total amount in human lung tissue slices: Parent compound” value (“Total amount” below) is listed as 7.32 ± 0.99 nmol/vial. Further, in data set [1] (6 h, 25 μM), the “Relative drug amount in human lung tissue slices: Parent compound” value was 64.9 ± 12.0 % of total UV areas and the “Total amount” value amounted to 8.41 ± 2.15 nmol/vial. Also, in data set [1] (24 h, 25 μM), the “Relative drug amount in human lung tissue slices: Parent compound” value is 53.6 ± 11.5 % of total UV areas and the “Total amount” value amounted to 9.04 ± 1.14 nmol/vial. The “Affinity to the glucocorticoid receptor” value with glucocorticoid receptor is “slightly lower”. Moreover, in data set [2] (setting [6]), the “Mean concentration in blood plasma” value is 0.63 nmol/kg and the “Mean concentration in lung tissue obtained from resections” value is listed as 5.5 nmol/kg.
On to `CCC(=O)O[C@]1(C(=O)CO)[C@@H](C)C[C@H]2[C@@H]3CCC4=CC(=O)C=C[C@]4(C)[C@@]3(Cl)[C@@H](O)C[C@@]21C` [BMP, beclomethasone-17-monopropionate], for which, in data set [1] (24 h), the “Share of BDP-related material in tissue” value amounted to 26.6% and the “Share of BDP-related material in medium” value was determined as 8.4%. Moreover, the “Amount of fatty acid esters formed, fold less than for BUD and des-CIC” value in data set [1] (lung tissue, esters formed by BMP (and/or BOH)) is on record as “approximately 10 fold”. Moreover, in data set [2] (setting [7]), the “Median concentration in bronchial tissue” value was 4.4 ng/g tissue and the “Median concentration in serum” value is 1.2 ng/mL.
For `CCC(=O)OCC(=O)[C@@]1(OC(=O)CC)[C@@H](C)C[C@H]2[C@@H]3CCC4=CC(=O)C=C[C@]4(C)[C@@]3(Cl)[C@@H](O)C[C@@]21C` [Beclomethasone dipropionate, beclomethasone dipropionate], the “Total amount” value in data set [1] (2 h, 25 μM) turned out to be 2.19 ± 0.83 nmol/vial; in data set [1] (6 h, 25 μM) it was 0.72 ± 0.46 nmol/vial.
In the case of `CCCCCCCCC=CCCCCCCCC(=O)OCC(=O)C12OC(C3CCCCC3)OC1CC1C3CCC4=CC(=O)C=CC4(C)C3C(O)CC12C` (centres unmarked) [Des-CIC-oleate], the “Lipophilicity relative to BUD-oleate” value in data set [3] (from logD 13.0 vs 12.3) is listed as “about 5 fold”.
Take `CCC(=O)O[C@]1(C(=O)SCF)[C@H](C)C[C@H]2[C@@H]3C[C@H](F)C4=CC(=O)C=C[C@]4(C)[C@@]3(F)[C@@H](O)C[C@@]21C` [Fluticasone propionate, fluticasone propionate]: the “Metabolites detected in incubation medium” value in data set [1] (25 μM, listed as FP) is “no metabolites were detected”. Besides, in data set [1] (tissue extract, 2, 6 and 24 h, 25 μM), the “Metabolites detected in tissue extract / metabolic stability” value was “no metabolites were detected”. Moreover, the “Relative drug amount in human lung tissue slices: Parent compound” value in data set [1] (2 h, 25 μM) was 100 ± 0.0 % of total UV areas; in data set [1] (6 h, 25 μM), 100 ± 0.0 % of total UV areas; in data set [1] (24 h, 25 μM) it was 100 ± 0.0 % of total UV areas. Also, the “Total amount” value was found to be 8.42 ± 1.26 nmol/vial in data set [1] (2 h, 25 μM); 8.62 ± 2.20 nmol/vial in data set [1] (6 h, 25 μM); 9.51 ± 2.22 nmol/vial in data set [1] (24 h, 25 μM). The “Affinity to the glucocorticoid receptor” value in the data set on glucocorticoid receptor is given as “higher”. Besides, in data set [2] (after single inhalation of FP, in a few patients), the “Concentration in central lung tissue” value is reported as “more than 20 ng/g”. Further, the “Mean concentration in serum” value in data set [2] (after single inhalation of FP, same time as lung tissue sample) is reported as “approximately 0.02 ng/mL”. In addition, the logD in data set [3] (pH 7.4) is 3.7.
Regarding `C[C@H]1C[C@H]2[C@@H]3CCC4=CC(=O)C=C[C@]4(C)[C@@]3(Cl)[C@@H](O)C[C@]2(C)[C@@]1(O)C(=O)CO` [BOH, beclomethasone], in data set [1] (24 h), the “Share of BDP-related material in tissue” value came out at 64.9% and the “Share of BDP-related material in medium” value was determined as 91.6%.
As to `C[C@]12C=CC(=O)C=C1CC[C@@H]1[C@@H]2[C@@H](O)C[C@@]2(C)[C@H]1C[C@H]1O[C@@H](C3CCCCC3)O[C@]12C(=O)CO` [des-CIC, desisobutyryl-ciclesonide], the “Relative percentage of des-CIC at the end of the incubation period” value in data set [1] (incubation of CIC 25 μM, 24 h, present study) is 32%; in data set [4] it was 29%. In addition, the “Affinity to the glucocorticoid receptor” value in the data set on glucocorticoid receptor was “high affinity”. The “Amount detected in mouth rinsing solutions” value in data set [5] is “Only traces”.
Take `CC(C)C(=O)OCC(=O)[C@@]12O[C@H](C3CCCCC3)O[C@@H]1C[C@H]1[C@@H]3CCC4=CC(=O)C=C[C@]4(C)[C@H]3[C@@H](O)C[C@@]12C` [Ciclesonide, ciclesonide]: the “Relative drug amount in medium: Parent compound” value was 94.9 ± 1.3 % of total UV areas in data set [1] (2 h); 83.2 ± 5.5 % of total UV areas in data set [1] (6 h); 37.4 ± 7.8 % of total UV areas in data set [1] (24 h); 37 % of total UV areas in data set [1] (24 h, listed as CIC). The “Relative drug amount in human lung tissue slices: Parent compound” value was 85.0 ± 3.4 % of total UV areas in data set [1] (2 h, 25 μM); 73.5 ± 4.7 % of total UV areas in data set [1] (6 h, 25 μM); 40.0 ± 7.6 % of total UV areas in data set [1] (24 h, 25 μM). Further, the “Total amount” value in data set [1] (2 h, 25 μM) is on record as 6.46 ± 0.92 nmol/vial; in data set [1] (6 h, 25 μM), 8.86 ± 1.68 nmol/vial; in data set [1] (24 h, 25 μM), 9.53 ± 1.70 nmol/vial. Besides, in data set [3], the logD is recorded as 6.1.

In general, logD refers to lipophilicity at a set pH, counting ionised and neutral species.

The record behind these values is publication PMC2071910 (Respiratory Research, 2007).
